From patent US8063054B2, “Method of treatment of retinal ischemia with diazoxide” (Centre National de la Recherche Scientifique-CNRS, priority 2003, dated 2011)

What was measured:
Brown Norway rats [1] = experiment: Electroretinography (A and B wave amplitude) after retinal ischemia induced by elevation of the intraocular pressure; type: in vivo, rat
Description: Brown Norway rats from the scientific stock farm IFFA CREDO with a weight between 200 and 250 g were received and placed into individual cages in an air-conditioned room (temperature between 18 and 20° C.) with a light/dark cycle (12 h/12 h). During the study the animals had free access to food and water. Diazoxide was dissolved in a pure solution of dimethyl sulfoxide (DMSO). The solution obtained in this manner was diluted in sterile physiological serum to obtain a final ophthalmic solution at 0.01% active principle and 0.4% DMSO. The local administration was performed by instillation of 10 μl of the ophthalmic solution in the conjunctival cul-de-sac of the right eye 30 minutes after the end of the ischemia for the 1st group and 24 hours after the start of the reperfusion for the second group, […] After general anesthesia of the rats by intraperitoneal injection of sodium pentobarbital (60 mg/kg) the pupil was dilated by instillation of a drop of Mydriaticum®. The anterior chamber of the right eye, previously anesthetized by instillation of a drop of oxybuprocaine, was cannulated with a 30G needle connected to a reservoir containing a Hank's balanced salt solution. The retinal ischemia, lasting 40 min, was induced by elevation of the reservoir containing the saline solution to a height of 185 cm, permitting an intraocular pressure to 130 mm Hg to be produced. Ischemia was characterized by the disappearance of the blood flow in the retinal vessels, determined by direct opthalmoscopy of the ocular fundus. The rats were sacrificed after a period of reperfusion of 7 days. All the rats that developed a cataract or a hemorrhage were separated from the study. The electroretinography is performed under general anesthesia of the rats after dilation of the pupil by instillation of a drop of Mydriaticum®. The animal is previously adapted for 12 hours to darkness, then installed on its flank in a Faraday cage. The measuring electrode, constituted by a silver chloride ring (Ag/AgCl) is placed on the cornea of the right eye. The reference electrode constituted by a silver chloride needle is inserted in the ear of the animal. All these operations are performed under red light. The luminous stimuli are produced by a stroboscope placed at 25 cm from the eye in the visual axis. The flash of white light lasting 10 μs and with an intensity of 2.5·10^3 cd·s·m^−2 permits a maximal response of the retina. The recovery of the electrical signal, its amplification, transmission and display on a microcomputer are managed by a compact system. An integrated software permits the acquisition of the data as well as the determination of the amplitudes and of the latency times of the different waves of the electroretinogram (ERG). The ERG in the rat is composed of two waves; a corneo-negative wave or A wave reflecting the activity of the photoreceptors followed by a wave of positive polarity or B wave reflecting the activity of the Müller cells. The ERG's are recorded for all the groups at time t=0 before induction of ischemia, then at times 1, 2, 3 and 7 days after the start of the reperfusion. The pre-ischemic amplitudes of the A and B waves of the ERG are very variable from one group to the other, but also within one and the same group. Recovery is expressed by percentage of the initial value and the difference of effectiveness between each treatment is analyzed with the aid of the U test of Mann Whitney. The significance threshold is 0.02.

Brown Norway rats [2] = experiment: Histological analysis of the cytoarchitecture of the retina after retinal ischemia; type: in vivo, rat; settings: 7 days after the end of the ischemia; treated 30 min or 24 hours after ischemia, compared to non-treated ischemia group
Description: Brown Norway rats from the scientific stock farm IFFA CREDO with a weight between 200 and 250 g were received and placed into individual cages in an air-conditioned room (temperature between 18 and 20° C.) with a light/dark cycle (12 h/12 h). During the study the animals had free access to food and water.
Diazoxide was dissolved in a pure solution of dimethyl sulfoxide (DMSO). The solution obtained in this manner was diluted in sterile physiological serum to obtain a final ophthalmic solution at 0.01% active principle and 0.4% DMSO.
The local administration was performed by instillation of 10 μl of the ophthalmic solution in the conjunctival cul-de-sac of the right eye 30 minutes after the end of the ischemia for the 1st group and 24 hours after the start of the reperfusion for the second group, then each day for 4 hours.
After general anesthesia of the rats by intraperitoneal injection of sodium pentobarbital (60 mg/kg) the pupil was dilated by instillation of a drop of Mydriaticum®. The anterior chamber of the right eye, previously anesthetized by instillation of a drop of oxybuprocaine, was cannulated with a 30G needle connected to a reservoir containing a Hank's balanced salt solution. […] Ischemia was characterized by the disappearance of the blood flow in the retinal vessels, determined by direct opthalmoscopy of the ocular fundus. […]

[3] = diazoxide 0.01% instilled 30 minutes after the start of the reperfusion and every day for 4 days, 3 days after the start of the reperfusion, ± standard deviation, n=7
[4] = diazoxide 0.01% instilled 30 minutes after the start of the reperfusion and every day for 4 days, 7 days after the end of the ischemia
[5] = diazoxide applied 24 hours after the start of the reperfusion, time 3 days
[6] = diazoxide applied 24 hours after the start of the reperfusion, time 7 days

CC1=Nc2ccc(Cl)cc2S(=O)(=O)N1 [diazoxide, 7-chloro-3-methyl-2H-1,2,4-benzothiadiazine-1,1-dioxide]
reduction of the electrical activity of the retina (ERG profiles, FIG. 1C-1D) (Brown Norway rats [1]; 7 days after the end of the ischemia, groups treated 30 min or 24 hours after ischemia, compared to non-treated ischemia group): much less drastic | amplitude of wave A of the electroretinogram, recovery in % of the initial values (Brown Norway rats [1]; [3]): 97.01±13% | amplitude of wave B of the electroretinogram, recovery in % of the initial values (Brown Norway rats [1]; [3]): 96.36±11% | amplitude of wave A of the electroretinogram, recovery in % of the initial values (Brown Norway rats [1]; [4]): 88.10±14% | amplitude of wave B of the electroretinogram, recovery in % of the initial values (Brown Norway rats [1]; [4]): 75±14% | amplitude of wave A of the electroretinogram, recovery in % of the initial values (Brown Norway rats [1]; [5]): 84.26±10% | amplitude of wave B of the electroretinogram, recovery in % of the initial values (Brown Norway rats [1]; [5]): 88.17±14% | amplitude of wave A of the electroretinogram, recovery in % of the initial values (Brown Norway rats [1]; [6]): 87.59±16% | amplitude of wave B of the electroretinogram, recovery in % of the initial values (Brown Norway rats [1]; [6]): 70.59±16% | effect on the recovery of the retinal function (statistical analysis, Mann Whitney U test) (Brown Norway rats [1]; instilled 30 min or 24 hours after the end of the ischemia, compared to the non-treated group caused to have ischemia): highly significant effect | preservation of the layers of the ganglionic cells and the photoreceptor cells (FIGS. 3C and 3D) (Brown Norway rats [2]): better presservation | thickness of the internal plexiform and nuclear layers of the retina (FIGS. 3C and 3D) (Brown Norway rats [2]): less severe reduction
